In patent US20080227780A1, “SOLUBLE EPOXIDE HYDROLASE INHIBITORS” (Arete Therapeutics, Inc., priority 2007, published 2008):

Tested on: soluble epoxide hydrolase (sEH)
Assay: Fluorescent assay for soluble epoxide hydrolase (CMNPC substrate), percent inhibition at the recited concentration
Type: biochemical
Conditions: Inhibition Conc. 200 nM
Outline: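 Purified recombinant baculovirus-expressed sEH in 25 mM Bis/Tris HCl pH 7.0 with 0.1 mg/mL BSA; inhibitor serially diluted and preincubated with enzyme 5 min at 30 °C. Reaction started with 5 μM (final) substrate; fluorescence (ex 330/em 465 nm) read every 30 s for 10 min, and velocities give % inhibition.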

Row | % inh. | Structure (SMILES)
1 | 96% | CC(C)(C)CC(=O)N1CCC(NC(=O)NC23CC4CC(CC(C4)C2)C3)CC1 [Compound 7-72, 1-adamantyl-3-(1-(3,3-dimethylbutanoyl)piperidin-4-yl)urea]
2 | 94% | O=C(NC1CCN(C(=O)CCCO)CC1)NC12CC3CC(CC(C3)C1)C2 [Compound 7-73, 1-adamantyl-3-(1-(4-hydroxybutanoyl)piperidin-4-yl)urea]
3 | 99% | O=C(NC1CCN(S(=O)(=O)CCCO)CC1)NC12CC3CC(CC(C3)C1)C2 [Compound 7-74, 1-adamantyl-3-(1-(3-hydroxypropylsulfonyl)piperidin-4-yl)urea]
4 | 100% | O=C(Nc1ccc(OC(F)(F)F)cc1)NC1CCN(S(=O)(=O)CCCO)CC1 [Compound 7-75, 1-(1-(3-hydroxypropylsulfonyl)piperidin-4-yl)-3-(4-(trifluoromethoxy)phenyl)urea]
5 | 94% | COCC(=O)N1CCC(NC(=O)NC23CC4CC(CC(C4)C2)C3)CC1 [Compound 7-76, 1-adamantyl-3-(1-(2-methoxyacetyl)piperidin-4-yl)urea]
6 | 99% | CC(C)(C)S(=O)(=O)N1CCC(NC(=O)Nc2ccc(OC(F)(F)F)cc2)CC1 [Compound 7-77, 1-(1-(tert-butylsulfonyl)piperidin-4-yl)-3-(4-(trifluoromethoxy)phenyl)urea]
7 | 95% | CC(C)(C)S(=O)(=O)N1CCC(NC(=O)NC23CC4CC(CC(C4)C2)C3)CC1 [Compound 7-78, 1-(1-(tert-butylsulfonyl)piperidin-4-yl)-3-adamantylurea]
8 | 98% | O=C(Nc1ccc(OC(F)(F)F)cc1)NC1CCN(C(=O)N2CCOCC2)CC1 [Compound 7-79, 1-(1-(morpholine-4-carbonyl)piperidin-4-yl)-3-(4-(trifluoromethoxy)phenyl)urea]
9 | 91% | CC(C)(C)C(=O)N1CCC(NC(=O)Nc2ccc(C#N)cc2)CC1 [Compound 7-81, 1-(4-cyanophenyl)-3-(1-pivaloylpiperidin-4-yl)urea]
10 | 95% | O=C(NC1CCN(C(=O)N2CCOCC2)CC1)NC12CC3CC(CC(C3)C1)C2 [Compound 7-82, 1-adamantyl-3-(1-(morpholine-4-carbonyl)piperidin-4-yl)urea]
11 | 92% | CC(=O)N1CCC(NC(=O)NC2CCCCCCC2)CC1 [Compound 7-84, 1-(1-acetylpiperidin-4-yl)-3-cyclooctylurea]

Same assay, conditions: Inhibition Conc. 500 nM

Row | % inh. | Structure (SMILES)
12 | 73% | CNS(=O)(=O)c1cccc(C(=O)N2CCC(NC(=O)Cc3ccc(Cl)cc3)CC2)c1 [Compound 7-85, 2-(4-chlorophenyl)-N-(1-(3-(N-methyl-sulfamoyl)benzoyl)-piperidin-4-yl)acetamide]

Same assay, conditions: Inhibition Conc. 2000 nM

Row | Structure (SMILES) | % inh.
13 | CC(=O)N1CCC(NC(=O)Nc2ccc(C#N)cc2)CC1 [Compound 7-80, 1-(1-acetylpiperidin-4-yl)-3-(4-cyanophenyl)urea] | 80%
14 | CC(=O)N1CCC(NC(=O)NC2CCC3(CCCC3)CC2)CC1 [Compound 7-83, 1-(1-acetylpiperidin-4-yl)-3-(spiro[4.5]decan-8-yl)urea] | 100%
15 | CC(C)(C)OC(=O)N1CCC(NC(=O)Nc2ccc(N3CCOCC3)cc2)CC1 [Compound 7-86, tert-butyl 4-(3-(4-morpholinophenyl)ureido)piperidine-1-carboxylate] | 90%
16 | CC(=O)N1CCC(NC(=O)Nc2ccc(N3CCOCC3)cc2)CC1 [Compound 7-87, 1-(1-acetylpiperidin-4-yl)-3-(4-morpholinophenyl)urea] | 0%

Now from value to compound:

Row | % inh. | Structure (SMILES)
17 | 86% | CC(=O)N1CCC(NC(=O)NC2CCN(C(=O)OC(C)(C)C)CC2)CC1 [Compound 8-2, tert-butyl 4-(3-(1-acetylpiperidin-4-yl)ureido)piperidine-1-carboxylate]
18 | 0% | CC(=O)N1CCC(NC(=O)NC2CCN(C)CC2)CC1 [Compound 8-3, 1-(1-acetylpiperidin-4-yl)-3-(1-methylpiperidin-4-yl)urea]
19 | 23% | CC(=O)N1CCC(NC(=O)NC2CCOCC2)CC1 [Compound 8-4, 1-(1-acetylpiperidin-4-yl)-3-(tetrahydro-2H-pyran-4-yl)urea]
20 | 23% | CC(=O)N1CCC(NC(=O)NC2CCS(=O)(=O)CC2)CC1 [Compound 8-5, 1-(1-acetylpiperidin-4-yl)-3-(1,1-dioxo-tetrahydro-2H-thiopyran-4-yl)urea]
21 | 69% | CC(=O)N1CCC(NC(=O)NC2CCN(C(=O)C(C)(C)C)CC2)CC1 [Compound 8-6, 1-(1-acetylpiperidin-4-yl)-3-(1-pivaloylpiperidin-4-yl)urea]

Same assay, conditions: Inhibition Conc. 5000 nM

Row | % inh. | Structure (SMILES)
22 | 79% | CS(=O)(=O)N1CCC(NC(=O)NC2CCN(S(C)(=O)=O)CC2)CC1 [Compound 8-1, 1,3-bis(1-(methylsulfonyl)piperidin-4-yl)urea]
